Measured values as given in PMC2808337, “Lactococcus lactis, an Alternative System for Functional Expression of Peripheral and Intrinsic Arabidopsis Membrane Proteins” (PLoS ONE, 2010).

Key:
ceQORH = biological target: T1, ceQORH (Arabidopsis thaliana, UniProt Q9SV68); assay: spectrophotometric NBT reduction to formazan, […] nm; assay type: biochemical; details: 100 µM NBT, 100 µM NADPH, soybean lipids, 10 mM Tris-HCl pH 8.0, artificial electron acceptor
T1 construct: mostly monomer, expected mass 34 kDa
T1 sequence (Q9SV68 1-329): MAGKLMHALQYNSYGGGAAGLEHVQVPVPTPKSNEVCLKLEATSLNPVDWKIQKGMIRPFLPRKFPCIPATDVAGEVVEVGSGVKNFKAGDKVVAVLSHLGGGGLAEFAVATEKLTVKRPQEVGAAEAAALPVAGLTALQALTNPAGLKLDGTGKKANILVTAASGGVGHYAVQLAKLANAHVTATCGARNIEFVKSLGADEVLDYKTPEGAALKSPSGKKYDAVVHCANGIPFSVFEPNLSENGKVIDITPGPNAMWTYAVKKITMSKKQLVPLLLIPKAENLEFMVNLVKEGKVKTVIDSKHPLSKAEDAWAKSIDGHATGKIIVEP

AtAATP1 = biological target: T2, AtAATP1 (Arabidopsis thaliana, UniProt Q39002); assay: radioactive ATP uptake into intact L. lactis cells, filtration; assay type: cell-based; details: 50 µM [α-32P]ATP, 50 mM potassium phosphate pH 7.0, 25 °C; empty-vector control; labelled compound
T2 construct: gene AATP1; N-terminal attB-encoded extension, C-terminal Strep-tag II; in intact Lactococcus lactis NZ9000 cells
T2 sequence (Q39002 81-624): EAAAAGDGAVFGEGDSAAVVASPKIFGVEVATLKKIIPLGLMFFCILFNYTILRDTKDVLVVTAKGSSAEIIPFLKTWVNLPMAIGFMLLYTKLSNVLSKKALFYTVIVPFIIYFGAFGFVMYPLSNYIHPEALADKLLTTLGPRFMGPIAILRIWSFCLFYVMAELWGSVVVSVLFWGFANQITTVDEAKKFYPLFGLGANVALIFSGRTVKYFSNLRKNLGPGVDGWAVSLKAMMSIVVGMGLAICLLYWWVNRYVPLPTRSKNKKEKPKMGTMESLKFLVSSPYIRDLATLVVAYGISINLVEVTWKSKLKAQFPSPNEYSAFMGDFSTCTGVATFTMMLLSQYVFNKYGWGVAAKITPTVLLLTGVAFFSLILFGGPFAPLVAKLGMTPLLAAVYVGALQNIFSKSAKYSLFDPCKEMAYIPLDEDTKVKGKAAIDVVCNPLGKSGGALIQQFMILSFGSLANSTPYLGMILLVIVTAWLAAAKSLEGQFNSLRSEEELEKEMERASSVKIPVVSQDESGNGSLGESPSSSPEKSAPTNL

NC(=O)C1=CN([C@@H]2O[C@H](COP(=O)(O)OP(=O)(O)OC[C@H]3O[C@@H](n4cnc5c(N)ncnc54)[C@H](OP(=O)(O)O)[C@@H]3O)[C@@H](O)[C@H]2O)C=CC1 [NADPH]
spectrophotometric NBT reduction to formazan, 550 nm (ceQORH; electron donor): ceQORH protein indeed has NADPH-dependent dehydrogenase activity

COc1cc(-c2ccc(-[n+]3nc(-c4ccccc4)nn3-c3ccc([N+](=O)[O-])cc3)c(OC)c2)ccc1-[n+]1nc(-c2ccccc2)nn1-c1ccc([N+](=O)[O-])cc1 [NBT]
spectrophotometric NBT reduction to formazan, 550 nm (ceQORH): the ceQORH protein, in combination with lipids and NADPH reduces the NBT to formazan

Nc1ncnc2c1ncn2[C@@H]1O[C@H](COP(=O)(O)OP(=O)(O)OP(=O)(O)O)[C@@H](O)[C@H]1O [[α-32P] ATP]
radioactive ATP uptake into intact L. lactis cells, filtration (AtAATP1): recombinant AtAATP1 protein produced in L. lactis is able to transport ATP
